The values that follow come from patent US6943278B2, “Transgenic Drosophila having a disrupted Parkin gene and exhibits reduced climbing ability” (GenExel, Inc., priority 2002, dated 2005).

What all share (format): in vivo, Drosophila
In one assay the test system is wild type flies. Briefly: climbing ability of wild type flies fed D- or L-dopa. Conditions: for effect on climbing response (in words): wild type flies fed 1 mM compound for 10 days; for % climbing abilities, WT: wild type flies fed 1 mM compound on dry yeast for 10 days. On the procedure:
(§1) parkin mutant flies older than 3-4 days after eclosion moved extremely slowly or not at all, remaining on the bottom of the culture vials. To quantify the locomotor behavioral defects of parkin mutant flies, the climbing ability of the mutants was examined. To do so, fifteen flies were placed in a plastic vial, and gently tapped to the bottom of the vial. The number of flies at the top of the vial was counted after 18 seconds of climbing. Ten trials were performed for each time point. The trial numbers were then averaged, and the resulting mean was normalized by the mean value of 1-day-old wild type. These used as the climbing scores for each single group of flies on a particular day. The experiment was repeated five times, with independently derived transgenic lines. The climbing score for five repeated experiments was then averaged, and a group mean and standard error were obtained. As previously reported (Ganetzky and Flanagan, Exp. Gerontol., 13:189 (1978); Le Bourg and Lints, Gerontology 8:59 (1992); Feany and Bender, 2000; Pendleton et al., J. Pharmacol. Exp. Ther. 300:91 (2002)), wild type flies rapidly climb to the top of a vial when tapped to the bottom, and have a strong tendency to remain at the top. However, as the flies get older, they no longer climb to the top of the vial, in other words they lose climbing ability (Ganetzky and Flanagan, 1978; Le Bourg and Lints, 1992; Feany and Bender, 2000; Pendleton et al., 2002).
(§2) A compound was screened for its ability to rescue the defective climbing response of Dpark^1 and Dpark^2 mutants. Flies were reared and crossed on Caltech medium (Ashbumer, Drosophila, Cold Spring Harbor, N.Y.: Cold Spring Harbor Laboratory Press (1989)) at 25° C. Wild type or parkin mutant flies were fed either L-DOPA or D-DOPA for 10 days by placing dry yeast that was soaked with 0.3 mL of either 1 mM L-DOPA or 1 mM D-DOPA on the bottom of the vial.

The subject of assay [1] is Dpark^1 parkin mutant flies. Nature of the assay: rescue of defective climbing response of Dpark^1 mutant flies. The conditions noted are these: for % climbing abilities, Dpark1/Dpark1: Dpark1/Dpark1 flies fed 1 mM compound on dry yeast for 10 days, relative to unfed wild type control; for effect on climbing response (in words): Dpark^1 flies fed 1 mM compound for 10 days. On the procedure:
as §1, §2

Assay [2] has as its system Dpark^2 parkin mutant flies. Briefly: rescue of defective climbing response of Dpark^2 mutant flies. The conditions noted are these: for % climbing abilities, Dpark2/Dpark2: Dpark2/Dpark2 flies fed 1 mM compound on dry yeast for 10 days, relative to unfed wild type control; for effect on climbing response (in words): Dpark^2 flies fed 1 mM compound for 10 days. On the procedure: as §1, §2

Each structure is given as a SMILES string.

Consider `N[C@H](Cc1ccc(O)c(O)c1)C(=O)O` [D-dopa, D-DOPA], for which, in the assay on wild type flies, the “effect on climbing response (in words)” value is “Neither L-DOPA nor D-DOPA was effective” and the “% climbing abilities, WT” value stood at 101.90 ± 2.72%. For the same compound, in assay [1], the “% climbing abilities, Dpark1/Dpark1” value stood at 33.221 ± 1.87% and the “effect on climbing response (in words)” value is “not effective”. For the same compound, in assay [2], the “% climbing abilities, Dpark2/Dpark2” value came out at 37.75 ± 2.44% and the “effect on climbing response (in words)” value is given as “not effective”.
Consider `N[C@@H](Cc1ccc(O)c(O)c1)C(=O)O` [L-dopa, L-DOPA], for which the “effect on climbing response (in words)” value in the assay on wild type flies is “Neither L-DOPA nor D-DOPA was effective”; in assay [1] it was “significantly restored the climbing response”; in assay [2] it was “significantly restored the climbing response”. Besides, the “% climbing abilities, WT” value with wild type flies turned out to be 100.59 ± 2.73%. The results for the “% climbing abilities, Dpark1/Dpark1” value in assay [1] and in assay [1] (listed as L-DOPA) were 68.20 ± 6.06% and roughly 70%, respectively. Also, the “% climbing abilities, Dpark2/Dpark2” value in assay [2] was 68.51 ± 10.09%; in assay [2] (listed as L-DOPA), roughly 70%.
